Measurements taken from ChEMBL document CHEMBL1144799, “Synthesis, antiviral activity, and conformational studies of a P3 aza-peptide analog of a potent macrocyclic tripeptide HCV protease inhibitor” (Bioorg Med Chem Lett, 2008).
pEC50, pIC50: −log10 of the molar value.

Assays:
[1] = Inhibition of HCV NS3-4A protease; set-up: species or system Hepacivirus hominis
Hepatitis C virus = assay: Antiviral activity against HCV replicon; assay type: functional, organism-based, Hepacivirus hominis

SMILES: COc1ccc2c(O[C@@H]3C[C@H]4C(=O)N[C@]5(C(=O)O)C[C@H]5/C=C\CCCCC[C@H](NC(=O)OC(C)(C)C)C(=O)N4C3)cc(-c3ccccc3)nc2c1
- pIC50 [1]: 7.96
- pEC50 (Hepatitis C virus): 7.11

SMILES: C=C[C@@H]1C[C@]1(NC(=O)[C@@H]1C[C@@H](Oc2cc(-c3ccccc3)nc3cc(OC)ccc23)CN1C(=O)N(NC(=O)OC(C)(C)C)C1CCCCC1)C(=O)O
- pIC50 [1]: 5.46

SMILES: C=C[C@@H]1C[C@]1(NC(=O)[C@@H]1C[C@@H](Oc2cc(-c3ccccc3)nc3cc(OC)ccc23)CN1C(=O)N(CC(C)C)NC(=O)OC(C)(C)C)C(=O)O
- pIC50 [1]: 5.68
- pEC50 (Hepatitis C virus): 4.28

SMILES: COc1ccc2c(O[C@@H]3C[C@H]4C(=O)N[C@]5(C(=O)O)C[C@H]5/C=C\CCCCCN(NC(=O)OC(C)(C)C)C(=O)N4C3)cc(-c3ccccc3)nc2c1
- pIC50 [1]: 5.42
- pEC50 (Hepatitis C virus): 4.51

SMILES: COc1ccc2c(O[C@@H]3C[C@H]4C(=O)N[C@]5(C(=O)O)C[C@H]5/C=C\CCCCC[C@H](NC(=O)OC5CCCC5)C(=O)N4C3)cc(-c3csc(NC(C)C)n3)nc2c1 [CILUPREVIR]
- pIC50 [1]: 8.52
- pEC50 (Hepatitis C virus): 8.92
